The results in this text go back to paper PMC6631349 (Xenobiotica; the fate of foreign compounds in biological …, 2014).

Data set [1] deals with T1, UGT1A6 (Homo sapiens, UniProt P19224).
T1 sequence (P19224 27-532): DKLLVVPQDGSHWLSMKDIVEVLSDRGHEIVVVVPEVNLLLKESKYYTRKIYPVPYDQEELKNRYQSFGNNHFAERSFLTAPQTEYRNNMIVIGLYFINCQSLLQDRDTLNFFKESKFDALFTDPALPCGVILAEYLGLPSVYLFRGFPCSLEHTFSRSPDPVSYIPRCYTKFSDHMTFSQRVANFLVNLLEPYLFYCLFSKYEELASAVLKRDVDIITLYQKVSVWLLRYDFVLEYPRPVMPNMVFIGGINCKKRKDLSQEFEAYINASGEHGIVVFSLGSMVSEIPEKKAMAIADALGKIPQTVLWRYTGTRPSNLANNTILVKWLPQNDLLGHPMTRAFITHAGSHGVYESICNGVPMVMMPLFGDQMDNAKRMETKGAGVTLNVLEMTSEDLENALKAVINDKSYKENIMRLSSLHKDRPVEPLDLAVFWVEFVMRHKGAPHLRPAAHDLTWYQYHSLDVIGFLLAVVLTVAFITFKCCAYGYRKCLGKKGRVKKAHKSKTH
The note with it: for inhibition percentage of UGT1A6 activity: 50 μM; for residual activity 1A6: 50 μM PC components, recombinant human UGT, mean of triplicate.

The target of data set [2] is T2, UGT2B7 (Homo sapiens, UniProt P16662).
T2 sequence (P16662 24-529): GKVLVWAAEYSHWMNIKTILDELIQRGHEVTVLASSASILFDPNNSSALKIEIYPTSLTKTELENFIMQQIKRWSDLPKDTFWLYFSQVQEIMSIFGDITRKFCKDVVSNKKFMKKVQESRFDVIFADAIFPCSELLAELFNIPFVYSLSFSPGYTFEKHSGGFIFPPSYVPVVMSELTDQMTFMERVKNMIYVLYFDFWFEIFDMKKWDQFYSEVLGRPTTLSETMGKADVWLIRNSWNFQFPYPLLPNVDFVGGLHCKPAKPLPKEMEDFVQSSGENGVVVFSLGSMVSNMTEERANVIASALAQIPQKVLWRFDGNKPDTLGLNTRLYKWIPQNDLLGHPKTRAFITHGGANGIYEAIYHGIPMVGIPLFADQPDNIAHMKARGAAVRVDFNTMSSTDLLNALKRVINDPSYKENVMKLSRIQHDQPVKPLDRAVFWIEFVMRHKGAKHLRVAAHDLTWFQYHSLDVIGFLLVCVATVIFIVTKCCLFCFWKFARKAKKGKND
Nature of the data set: UGT2B7 supersomes-catalyzed 4-MU glucuronidation inhibition. The note with it: for residual activity 2B7: 50 μM PC components, recombinant human UGT, mean of triplicate.

In data set [3] the target is T3, UGT2B4 (Homo sapiens, UniProt P06133).
T3 sequence (P06133 24-528): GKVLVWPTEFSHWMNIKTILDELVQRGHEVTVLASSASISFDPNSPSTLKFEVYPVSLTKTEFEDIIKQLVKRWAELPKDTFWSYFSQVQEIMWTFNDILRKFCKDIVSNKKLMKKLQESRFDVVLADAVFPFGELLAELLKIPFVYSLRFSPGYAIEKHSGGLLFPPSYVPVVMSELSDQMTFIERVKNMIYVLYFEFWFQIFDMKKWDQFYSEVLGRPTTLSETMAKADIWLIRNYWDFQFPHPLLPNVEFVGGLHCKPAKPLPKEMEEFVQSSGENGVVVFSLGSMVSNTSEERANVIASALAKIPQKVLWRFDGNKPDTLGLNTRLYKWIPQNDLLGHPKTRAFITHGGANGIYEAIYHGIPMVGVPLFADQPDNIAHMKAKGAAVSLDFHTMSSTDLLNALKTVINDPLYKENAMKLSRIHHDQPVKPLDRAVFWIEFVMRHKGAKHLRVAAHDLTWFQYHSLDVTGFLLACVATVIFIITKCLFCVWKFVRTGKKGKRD
Nature of the data set: UGT2B4 supersomes-catalyzed 4-MU glucuronidation inhibition. The note with it: 50 μM PC components; recombinant human UGT; mean of triplicate.

Data set [4] concerns the target T4, UGT1A1 (Homo sapiens, UniProt P22309).
T4 sequence (P22309 26-533): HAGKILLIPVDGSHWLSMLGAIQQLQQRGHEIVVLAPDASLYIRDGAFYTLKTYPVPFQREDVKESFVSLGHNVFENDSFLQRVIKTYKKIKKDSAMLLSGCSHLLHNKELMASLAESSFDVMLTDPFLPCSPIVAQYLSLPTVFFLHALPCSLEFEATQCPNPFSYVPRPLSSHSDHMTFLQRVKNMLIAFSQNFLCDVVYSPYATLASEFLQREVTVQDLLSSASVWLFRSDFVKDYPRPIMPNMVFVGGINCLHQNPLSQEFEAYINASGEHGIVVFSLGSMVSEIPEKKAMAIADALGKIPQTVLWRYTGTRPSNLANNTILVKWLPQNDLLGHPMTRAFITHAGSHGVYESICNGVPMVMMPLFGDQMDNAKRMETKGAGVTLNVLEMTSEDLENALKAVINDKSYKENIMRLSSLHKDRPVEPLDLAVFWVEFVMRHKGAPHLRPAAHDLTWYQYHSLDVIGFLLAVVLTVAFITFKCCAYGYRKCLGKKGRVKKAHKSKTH
Nature of the data set: UGT1A1 supersomes-catalyzed 4-MU glucuronidation inhibition. The note with it: 50 μM PC components; recombinant human UGT; mean of triplicate.

The target in data set [5] is T5, UGT1A8 (Homo sapiens, UniProt Q9HAW9).
T5 sequence (Q9HAW9 26-530): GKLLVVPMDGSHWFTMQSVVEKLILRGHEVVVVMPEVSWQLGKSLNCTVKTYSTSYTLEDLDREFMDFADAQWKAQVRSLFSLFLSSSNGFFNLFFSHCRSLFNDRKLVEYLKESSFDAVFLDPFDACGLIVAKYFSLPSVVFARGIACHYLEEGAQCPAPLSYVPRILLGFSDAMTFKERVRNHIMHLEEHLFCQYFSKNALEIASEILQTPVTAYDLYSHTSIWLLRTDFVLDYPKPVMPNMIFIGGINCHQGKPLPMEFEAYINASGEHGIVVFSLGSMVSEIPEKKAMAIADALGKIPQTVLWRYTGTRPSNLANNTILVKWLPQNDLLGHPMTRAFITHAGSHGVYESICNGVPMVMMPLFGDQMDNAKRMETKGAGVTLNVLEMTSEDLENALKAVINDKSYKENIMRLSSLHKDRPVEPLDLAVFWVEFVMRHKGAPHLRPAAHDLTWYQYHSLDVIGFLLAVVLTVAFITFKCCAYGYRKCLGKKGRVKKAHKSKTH
The note with it: 50 μM PC components; recombinant human UGT; mean of triplicate.

SMILES strings stand for the structures.

Regarding `CCCCCCCCC(=O)OC[C@H](COP(=O)([O-])OCC[N+](C)(C)C)OC(=O)CCCCCCCC` [PC 9:0, 9:0], in data set [1], the “inhibition percentage of UGT1A6 activity” value was determined as 78.6% and the “residual activity 1A6” value is recorded as 21.4%. Also, the “residual activity 2B7” value in data set [2] worked out at 79.6%. For the same compound, the “residual activity 2B4” value in data set [3] came to 156.7%. For the same compound, the “residual activity 1A1” value in data set [4] was found to be 162.3%. Moreover, in data set [5], the “residual activity 1A8” value turned out to be 33.2%.
As for `CCCCCCCCCC(=O)OC[C@H](COP(=O)([O-])OCC[N+](C)(C)C)OC(=O)CCCCCCCCC` [PC 10:0, 10:0], in data set [1], the “inhibition percentage of UGT1A6 activity” value amounted to 76.8% and the “residual activity 1A6” value turned out to be 23.2%. For the same compound, the “residual activity 2B7” value in data set [2] was 86.2%. Also, the “residual activity 2B4” value in data set [3] is 168.4%. In data set [4], the “residual activity 1A1” value came out at 197.9%. Besides, in data set [5], the “residual activity 1A8” value is reported as 59.3%.
In the case of `CCCCCCCCCCC(=O)OC[C@H](COP(=O)([O-])OCC[N+](C)(C)C)OC(=O)CCCCCCCCCC` [PC 11:0, 11:0], the “residual activity 1A6” value in data set [1] is 35.0%. The “residual activity 2B7” value in data set [2] was 100.5%. For the same compound, the “residual activity 2B4” value in data set [3] came to 181.0%. Besides, the “residual activity 1A1” value in data set [4] was found to be 232.3%. Moreover, in data set [5], the “residual activity 1A8” value is given as 116.8%.
Consider `CCCCCCCCCCCC(=O)OC[C@H](COP(=O)([O-])OCC[N+](C)(C)C)OC(=O)CCCCCCCCCCC` [PC 12:0, 12:0], for which the “residual activity 1A6” value in data set [1] was 40.8%. Also, the “residual activity 2B7” value in data set [2] amounted to 85.8%. Further, the “residual activity 2B4” value in data set [3] amounted to 182.7%. In data set [4], the “residual activity 1A1” value is recorded as 208.8%. The “residual activity 1A8” value in data set [5] stood at 114.1%.
With `CCCCCCCCCCCCC(=O)OC[C@H](COP(=O)([O-])OCC[N+](C)(C)C)OC(=O)CCCCCCCCCCCC` [PC 13:0, 13:0], in data set [1], the “residual activity 1A6” value is listed as 56.5%. Besides, the “residual activity 2B7” value in data set [2] worked out at 81.4%. Further, the “residual activity 2B4” value in data set [3] was found to be 193.8%. Also, the “residual activity 1A1” value in data set [4] turned out to be 201.1%. Besides, the “residual activity 1A8” value in data set [5] is 114.3%.
On the same counts, the results for `CCCCCCCCCCCCCC(=O)OC[C@H](COP(=O)([O-])OCC[N+](C)(C)C)OC(=O)CCCCCCCCCCCCC` [PC 14:0, 14:0] are 54.3%, 66.1%, 179.0%, 208.9% and 110.2%.
Turning to `CCCCCCCCCCCCCCC(=O)OC[C@H](COP(=O)([O-])OCC[N+](C)(C)C)OC(=O)CCCCCCCCCCCCCC` [PC 15:0, 15:0], the “residual activity 1A6” value in data set [1] is 55.0%. Further, the “residual activity 2B7” value in data set [2] was 51.7%. Also, the “residual activity 2B4” value in data set [3] was determined as 191.3%. Further, the “residual activity 1A1” value in data set [4] is given as 210.1%. In addition, the “residual activity 1A8” value in data set [5] is reported as 105.9%.
With `CCCCCCCCCCCCCCCC(=O)OC[C@H](COP(=O)([O-])OCC[N+](C)(C)C)OC(=O)CCCCCCCCCCCCCCC` [PC 16:0, 16:0], the “residual activity 1A6” value in data set [1] was 53.7%. In data set [2], the “residual activity 2B7” value is recorded as 60.3%. For the same compound, the “residual activity 2B4” value in data set [3] is on record as 185.1%. The “residual activity 1A1” value in data set [4] is 192.6%. Moreover, in data set [5], the “residual activity 1A8” value was found to be 107.6%.
With `CCCCCCCCCCCCCCCCC(=O)OC[C@H](COP(=O)([O-])OCC[N+](C)(C)C)OC(=O)CCCCCCCCCCCCCCCC` [PC 17:0, 17:0], the “residual activity 1A6” value in data set [1] is recorded as 49.1%. In addition, in data set [2], the “residual activity 2B7” value is given as 35.5%. In data set [3], the “residual activity 2B4” value stood at 175.4%. The “residual activity 1A1” value in data set [4] turned out to be 192.3%. Further, in data set [5], the “residual activity 1A8” value is given as 92.1%.
For the compound `CCCCCCCCCCCCCCCCCC(=O)OC[C@H](COP(=O)([O-])OCC[N+](C)(C)C)OC(=O)CCCCCCCCCCCCCCCCC` [PC 18:0, 18:0], the “residual activity 1A6” value in data set [1] worked out at 50.7%. Further, in data set [2], the “residual activity 2B7” value is recorded as 36.0%. Moreover, the “residual activity 2B4” value in data set [3] is on record as 93.4%. Further, the “residual activity 1A1” value in data set [4] was found to be 208.2%. In data set [5], the “residual activity 1A8” value was determined as 84.1%.
Regarding `CC/C=C\C/C=C\C/C=C\C/C=C\C/C=C\C/C=C\CCC(=O)O[C@H](COC(=O)CCCCCCCCCCCCCCCCC)COP(=O)([O-])OCC[N+](C)(C)C` [PC 18:0, 22:6, 1-stearoyl-2-docosahexaenoyl-sn-glycero-3-phosphocholine], the “residual activity 1A6” value in data set [1] was 88.8%. Also, the “residual activity 2B7” value in data set [2] is listed as 73.6%. Moreover, in data set [3], the “residual activity 2B4” value came out at 183.2%. Further, in data set [4], the “residual activity 1A1” value came to 186.6%. The “residual activity 1A8” value in data set [5] amounted to 116.1%.
As for `CCCCCCCCCCCCCCCCCCC(=O)OC[C@H](COP(=O)([O-])OCC[N+](C)(C)C)OC(=O)CCCCCCCCCCCCCCCCCC` [PC 19:0, 19:0], the “residual activity 1A6” value in data set [1] is 49.1%. Besides, the “inhibition percentage of UGT2B7 activity” value in data set [2] (50 μM) is reported as 76.9%. In data set [2], the “residual activity 2B7” value was found to be 23.1%. In data set [3], the “residual activity 2B4” value is 83.4%. Besides, the “residual activity 1A1” value in data set [4] came out at 184.9%. Moreover, in data set [5], the “residual activity 1A8” value is 60.6%.
Take `CCCCCCCCCCCCCCCCCCCC(=O)OC[C@H](COP(=O)([O-])OCC[N+](C)(C)C)OC(=O)CCCCCCCCCCCCCCCCCCC` [PC 20:0, 20:0]: the “residual activity 1A6” value in data set [1] came out at 88.2%. For the same compound, the “residual activity 2B7” value in data set [2] was 88.9%. The “residual activity 2B4” value in data set [3] is reported as 79.5%. Moreover, the “residual activity 1A1” value in data set [4] amounted to 202.3%. For the same compound, the “residual activity 1A8” value in data set [5] is recorded as 94.9%.
Turning to `CCCCCCCCCCCCCCCCCCCCC(=O)OC[C@H](COP(=O)([O-])OCC[N+](C)(C)C)OC(=O)CCCCCCCCCCCCCCCCCCCC` [PC 21:0, 21:0], the “residual activity 1A6” value in data set [1] amounted to 85.4%. In addition, the “residual activity 2B7” value in data set [2] is 26.2%. Also, the “residual activity 2B4” value in data set [3] is on record as 80.3%. Moreover, in data set [4], the “residual activity 1A1” value is listed as 185.2%. Moreover, the “residual activity 1A8” value in data set [5] was determined as 36.9%.
